Measured values as given in patent publication US20240207265A1, “TREATMENT OF CNS DISEASES WITH sGC STIMULATORS” (Tisento Therapeutics Inc., priority 2021, published 2024).

How the values were obtained:
[1] = test system: MK-801-induced memory deficit; assay: Novel Object Recognition (NOR) test, MK-801-induced memory disruption; type: in vivo, rat; conditions: for Recognition Index vs Vehicle-MK-801 group: 1 mg/kg PO 60 min prior to training, MK-801 0.1 mg/kg; for side effects in NOR study: any dose tested, oral, Long Evans rats
Description: In the present study, a memory saving model was used. MK-801 (Dizocilpine), an uncompetitive antagonist of the NMDA receptor was used to cause deficit of recognition memory. sGC stimulators were evaluated for their efficacy to prevent memory impairment induced by MK-801.
Adult male Long-Evans rats (275-299 gram at arrival from Envigo, Indianapolis, IN) were used in this study. Rats were placed in the experimental rooms and assigned unique identification numbers (tail marks). Rats were housed 2 per cage in polycarbonate cages with filter tops and acclimated for at least 7 days prior to testing. Animal room was maintained in a 12/12 h light/dark cycle (lights on at 07.00 EST), 22±1° C. and relative humidity at approximately 50%. Food and water were provided ad libitum. All animals were examined, handled and weighed prior to the study to assure adequate health and to minimize the non-specific stress associated with testing. Each animal was randomly assigned across the treatment groups. The experiments were conducted during the animal's light cycle phase.
MK-801 (0.1 mg/kg; Sigma-Aldrich) was dissolved in saline and injected IP, 15 min prior to NOR training. The dose volume was 1 ml/kg.
Galantamine (1 mg/kg; Tocris) was dissolved in saline and injected IP, 15 minutes prior to training. The dose volume was 1 ml/kg.
Compound I-20 (0.03, 0.3 and 1 mg/kg) was formulated in vehicle (0.5% (w/w) methyl cellulose and 0.5% (w/w) Tween 80 in ultrapure water) and orally dosed 60 min prior to NOR training at 2 ml/kg dose volume.
Compound I-14 (0.01, 0.1 and 1 mg/kg) was formulated as its Na+ salt as a solution in MilliQ water and stored as frozen aliquots. The aliquots of compound solutions and compound vehicle were stored in −80° C. and freshly thawed on each testing day. The compound and vehicle were orally dosed 60 minutes prior to NOR training. The dose volume was 10 ml/kg.
NOR test was conducted in an open-field arena (40×40 cm) placed in a sound-attenuated room under dimmed lighting. Each rat was tested separately, and care was taken to remove olfactory/taste cues by cleaning the arena and test objects with 70% alcohol between trials and rats. All training and testing trials were video-taped and scored by an observer blind to treatments.
On Days 1 and 2, rats were allowed to freely explore the arena (no objects inside) for a 5-minute habituation period. On Day 3 (training and testing day), rats were administered vehicle, saline and/or compound solution according to corresponding pretreatment, which is defined as time between injection and start of NOR training. Each animal was placed into the test arena in the presence of two identical objects. Each rat was placed in the arena facing the same direction at the same position, and the time spent actively exploring the objects during a 3-minute training period (T1) was recorded. The rat was returned to its home cage following training. NOR test (T2) was conducted 1 hour after T1. Each rat was placed back into the test arena in the presence of one familiar object and one novel object for 5 minutes, and the time spent exploring both objects was recorded. […]
Data of NOR test (T2) were expressed as Recognition Index, which is defined as the ratio of the time spent exploring the novel object over the total time spent exploring both objects (Novel/(Familiar+Novel)×100%) during the test session.
For Compound I-14, data were analyzed in two batches separately. […] Data were analyzed with t-test to evaluate the validity of the test. […]

[2] = Non-human primate CSF pharmacokinetics (Study A); type: in vivo, Cynomolgus monkeys; conditions: female, cynomolgus monkey, NHP CSF (cisterna magna)/unbound plasma, sodium salt
Description: PK in NHP was determined following oral dosing (PO). A group of 4 female Cynomolgus monkeys were used for studying each compound. Compound I-20 sodium salt was formulated as a 0.06 mg/mL solution in MilliQ water. Compound I-14 sodium salt was formulated as 0.2 mg/mL solution in MilliQ water. Formulations were shipped frozen on dry ice and then thawed and mixed thoroughly prior to dosing. PO doses of 1 mg/kg for Compound I-14 and 0.3 mg/kg for Compound I-20 were administered by oral gavage.
Plasma and CSF samples were collected as follows: samples of CSF were collected at 3 and 24 hours post PO dosing. CSF samples (0.125 mL) were collected at the cisterna magna via direct needle puncture by direct dilution. Blood samples (0.8 mL) were collected from a peripheral vein at 0, 0.25, 0.5, 1, 2, 3, 6, 8, […], 24, 32 and 48 or 72 hours. These samples were kept on ice until processed for plasma. Blood samples were protein precipitated using acetonitrile. Plasma was directly transferred to individual tubes (0.125 mL) and K2EDTA was used as the anticoagulant. Plug caps were placed on the tubes and the tubes frozen at approximately −70° C. and stored until analysis. Plasma and CSF was collected and analyzed for the presence of compound.
Plasma and CSF samples were analyzed using liquid chromatography (LC) with tandem mass spectrometric detection (MS/MS) using positive electrospray ionization. The standard curve range was from 0.1 to 1000 ng/mL.
The geometrical means for the values obtained for the 4 animals in each compound's study was obtained for concentrations in CSF and in Plasma, respectively.
Kp,uu is defined as the concentration ratio of unbound drug in CSF to unbound drug in plasma. Unbound drug in plasma (or free plasma concentration) is calculated by multiplying the total plasma concentration by the unbound fraction as determined by plasma protein binding. The CSF concentration is then divided by the free plasma concentration to determine the Kp,uu. (See e.g., Di et al., J. Med. Chem., 56, 2-12 (2013))

Row | Kp uu at 3 h ([2]; PO 1 mg/kg) | Kp uu at 24 h ([2]; PO 1 mg/kg) | Kp uu at 3 h ([2]; PO 0.3 mg/kg) | Kp uu at 24 h ([2]; PO 0.3 mg/kg) | SMILES | Recognition Index vs Vehicle-MK-801 group ([1]; 0-1 minute time range) | Recognition Index vs Vehicle-MK-801 group ([1]; 0-3 minute time range) | Recognition Index vs Vehicle-MK-801 group ([1]; 0-5 minute time range) | side effects in NOR study [1]
1 | 2 to 3 | > 3 | – | – | Cc1cc(F)c(Cc2nc(-c3ncc(F)c(O)n3)cn3ccnc23)cc1F [Compound I-14, 5-fluoro-2-(8-(2,5-difluoro-4-methylbenzyl)imidazo[1,2-a]pyrazin-6-yl)pyrimidin-4-ol] | reversed the deficit | trend (P<0.10) in reversing MK-801-induced memory deficit | significantly higher Recognition Index | None of the rats in this study showed obvious side effects at any dose
2 | – | – | ≤ 1 | 1 to 2 | Oc1nc(-c2cn3ccnc3c(Cc3cc(F)ccc3F)n2)ncc1F [Compound I-20, 5-fluoro-2-(8-(2,5-difluorobenzyl)imidazo[1,2-a]pyrazin-6-yl)pyrimidin-4-ol] | – | – | – | None of the rats in this study showed obvious side effects at any dose
